The text below walks through data of ChEMBL document CHEMBL1143711, “Design, synthesis, and evaluation of potent, structurally novel peroxisome proliferator-activated receptor (PPAR) delta-selective agonists” (Bioorg Med Chem, 2007).

In assay [1] the target is T1, Peroxisome proliferator-activated receptor gamma (Homo sapiens, UniProt P37231).
T1 sequence (P37231 whole entry): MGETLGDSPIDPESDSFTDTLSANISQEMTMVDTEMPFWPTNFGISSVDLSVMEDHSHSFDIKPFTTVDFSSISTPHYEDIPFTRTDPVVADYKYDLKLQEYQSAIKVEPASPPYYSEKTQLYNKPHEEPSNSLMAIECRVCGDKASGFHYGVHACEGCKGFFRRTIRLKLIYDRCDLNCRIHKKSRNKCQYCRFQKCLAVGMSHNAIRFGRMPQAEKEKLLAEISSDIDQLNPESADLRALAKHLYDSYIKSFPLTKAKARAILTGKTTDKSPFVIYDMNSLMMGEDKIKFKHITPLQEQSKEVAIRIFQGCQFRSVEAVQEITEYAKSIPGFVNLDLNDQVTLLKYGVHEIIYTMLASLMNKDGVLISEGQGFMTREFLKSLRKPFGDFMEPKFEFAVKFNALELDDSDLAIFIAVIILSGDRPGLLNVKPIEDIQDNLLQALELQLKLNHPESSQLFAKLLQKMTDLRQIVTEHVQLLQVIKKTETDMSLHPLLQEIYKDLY
The class given is cell-based, HEK293.

Assay [2] has as its target T2, Peroxisome proliferator-activated receptor alpha (Homo sapiens, UniProt Q07869).
T2 sequence (Q07869 whole entry): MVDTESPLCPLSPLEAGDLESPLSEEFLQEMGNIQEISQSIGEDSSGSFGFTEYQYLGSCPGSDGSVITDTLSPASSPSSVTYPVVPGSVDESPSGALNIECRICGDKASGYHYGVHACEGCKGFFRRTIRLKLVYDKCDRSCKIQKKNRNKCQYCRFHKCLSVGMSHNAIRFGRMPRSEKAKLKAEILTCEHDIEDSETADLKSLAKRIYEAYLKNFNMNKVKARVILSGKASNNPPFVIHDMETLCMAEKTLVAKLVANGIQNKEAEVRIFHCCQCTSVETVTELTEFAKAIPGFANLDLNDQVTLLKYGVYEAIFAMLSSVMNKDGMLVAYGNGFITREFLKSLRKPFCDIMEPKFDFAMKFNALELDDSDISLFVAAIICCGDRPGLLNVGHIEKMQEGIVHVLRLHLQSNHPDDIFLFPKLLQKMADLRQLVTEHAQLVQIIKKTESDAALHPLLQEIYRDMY
Nature of the assay: Effect on PPARalpha transactivation activity in HEK293 cells. It is filed as cell-based.

For assay [3], the target named is T3, Peroxisome proliferator-activated receptor delta (Homo sapiens, UniProt Q03181).
T3 sequence (Q03181 whole entry): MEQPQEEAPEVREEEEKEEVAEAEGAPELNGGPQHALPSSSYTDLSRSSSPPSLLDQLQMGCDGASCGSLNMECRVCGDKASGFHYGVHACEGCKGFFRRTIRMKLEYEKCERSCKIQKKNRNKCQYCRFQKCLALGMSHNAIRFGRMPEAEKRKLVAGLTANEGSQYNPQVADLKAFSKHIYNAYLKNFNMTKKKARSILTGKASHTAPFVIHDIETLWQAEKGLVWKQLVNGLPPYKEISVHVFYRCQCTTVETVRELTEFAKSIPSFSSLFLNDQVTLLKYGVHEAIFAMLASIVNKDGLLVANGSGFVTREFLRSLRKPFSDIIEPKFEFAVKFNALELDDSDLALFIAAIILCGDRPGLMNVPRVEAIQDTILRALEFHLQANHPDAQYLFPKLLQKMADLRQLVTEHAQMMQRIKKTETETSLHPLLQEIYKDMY

Bounds are passed on as bounds.

Broadly, the EC50 is the concentration at which the effect is half-maximal. Higher therefore signals a need for much substance. In assay [1], `COc1ccc(CC(C)C(=O)O)cc1CNC(=O)c1ccc(C(F)(F)F)cc1` (stereo not given) yielded a 50% effective concentration (EC50) of over 10 µM. `COc1ccc(CCC(=O)O)cc1CNC(=O)c1ccc(C(F)(F)F)cc1` came in with an EC50 in assay [1] of over 10 µM. Consider `CCC(Cc1ccc(OCc2ccccc2)c(CNC(=O)c2ccc(C(F)(F)F)cc2)c1)C(=O)O` (stereo not given), for which the concentration for a half-maximal effect (EC50) in assay [2] was over 10 µM. As to `CCCCOc1ccc(C[C@@H](CC)C(=O)O)cc1CNC(=O)c1ccc(C(F)(F)F)cc1F`, the concentration for a half-maximal effect (EC50) is 7 µM in assay [1] and 8.3 nM in assay [3].
